Tested on: Human Hair Follicle Outer Root Sheath Cells (HHFORSC)
Assay: ATP assay in Human Hair Follicle Outer Root Sheath Cells (Abcam ATP-assay kit, absorbance 570 nm)
Type: cell-based
Conditions: 24 h treatment, carnitine 10 mg/ml, caffeine 10 mg/ml, arginine 30 mg/ml (alone or combined); for ATP % vs control: control = culture medium only = 100
Description: Human Hair Follicle Outer Root Sheath Cells (HHFORSC), supplied by Innoprot, are isolated by ScienCell Research Labs from the outer sheath of the root of human hair. The cell line was grown in culture medium for mesenchymal stem cells (MSCM): 500 mL basal medium, 20% fetal bovine serum (FBS), 1% growth supplement for mesenchymal stem cells (MSCGS), 1% penicillin/streptomycin (P/S solution) and maintained in 25 cm^2 culture flasks at 37° C. and 5% CO2. Before proceeding with plating the cells, the flask cells is coated with poly-L-lysine (2 μg/cm^2). Every two days, the confluent cultures are divided 1:3-1:6, after washing with DPBS (Dulbecco's Phosphate-Buffered Saline), using a solution of T/E (trypsin/EDTA solution) and TNS (Trypsin Neutralization Solution) and seeded at 2-5×^4 cell/cm^2, 37° C., 5% CO2. When the cells (HHFORSC) reach about 80% confluence, they are detached with trypsin/EDTA and seeded at a density of 1×10^6 cells/ml in 12-well plates and then incubated at 37° C., 5% CO2 (24 h). When the cells reach about 80% confluence, they are treated with samples of the following compounds or mixtures of compounds, tested at the concentrations described hereafter: • Carnitine 10 mg/ml • Caffeine 10 mg/ml • Arginine 30 mg/ml • Carnitine 10 mg/ml+Caffeine 10 mg/ml • Carnitine 10 mg/ml+Arginine 30 mg/ml • Caffeine 10 mg/ml+Arginine 30 mg/ml • Carnitine 10 mg/ml+Caffeine 10 mg/ml+Arginine 30 mg/ml The cells treated with culture medium only were used as control. All the cells were incubated at 37° C., 5% CO2 for 24 h. […] The samples were then lysed by pipetting repeatedly and centrifuged to remove insoluble materials, and finally stored on ice until use. […] The samples were incubated at room temperature for 30 minutes, in the dark. The absorbance was read at a wavelength of 570 nm with a reference filter of 630 nm in a microplate reader Biotek ELX808 using a predetermined protocol and after having correctly defined a layout of the plate. The ATP concentration was calculated by interpolating the data of the standard curve after subtraction of the blank: [ATP] (nmol/μl)=Ts/Sv where Ts is the amount of ATP from the standard curve (nmol); SV is the volume of the sample (before dilution) added to the sample wells (μl).

| Structure (SMILES) | Δ % (increase in the production of cellular ATP vs untreated control) [%] | ATP % vs control [%] |
| --- | --- | --- |
| N=C(N)NCCC[C@H](N)C(=O)O [Arginine] | 32.944 | 132.94 |
| Cn1c(=O)c2c(ncn2C)n(C)c1=O [Caffeine] | 26.843 | 126.84 |
| C[N+](C)(C)CC(O)CC(=O)[O-] (stereo not drawn) [Carnitine] | 34.164 | 134.16 |
